For the test, the target named is T1, TEK (Tie2) (Homo sapiens, UniProt Q02763).
T1 construct: purchased Thermo Fisher Scientific (Life Technologies) SelectScreen
Description: SelectScreen Z'LYTE. Format: biochemical. Summed up: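 SelectScreen broad panel; activity (Z'LYTE, Adapta) plus binding formats. ATP: Km app for CSF1R Z'LYTE; 10 for CAMK1 Adapta. Readout = % per kinase.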

Inhibition data for one molecule are collected here from paper PMC6934184, “Selective DNA-PKcs inhibition extends the therapeutic index of localized radiotherapy and chemotherapy” (The Journal of Clinical Investigation, 2019).

SMILES strings stand for the structures.

T1 sequence (Q02763 23-1124): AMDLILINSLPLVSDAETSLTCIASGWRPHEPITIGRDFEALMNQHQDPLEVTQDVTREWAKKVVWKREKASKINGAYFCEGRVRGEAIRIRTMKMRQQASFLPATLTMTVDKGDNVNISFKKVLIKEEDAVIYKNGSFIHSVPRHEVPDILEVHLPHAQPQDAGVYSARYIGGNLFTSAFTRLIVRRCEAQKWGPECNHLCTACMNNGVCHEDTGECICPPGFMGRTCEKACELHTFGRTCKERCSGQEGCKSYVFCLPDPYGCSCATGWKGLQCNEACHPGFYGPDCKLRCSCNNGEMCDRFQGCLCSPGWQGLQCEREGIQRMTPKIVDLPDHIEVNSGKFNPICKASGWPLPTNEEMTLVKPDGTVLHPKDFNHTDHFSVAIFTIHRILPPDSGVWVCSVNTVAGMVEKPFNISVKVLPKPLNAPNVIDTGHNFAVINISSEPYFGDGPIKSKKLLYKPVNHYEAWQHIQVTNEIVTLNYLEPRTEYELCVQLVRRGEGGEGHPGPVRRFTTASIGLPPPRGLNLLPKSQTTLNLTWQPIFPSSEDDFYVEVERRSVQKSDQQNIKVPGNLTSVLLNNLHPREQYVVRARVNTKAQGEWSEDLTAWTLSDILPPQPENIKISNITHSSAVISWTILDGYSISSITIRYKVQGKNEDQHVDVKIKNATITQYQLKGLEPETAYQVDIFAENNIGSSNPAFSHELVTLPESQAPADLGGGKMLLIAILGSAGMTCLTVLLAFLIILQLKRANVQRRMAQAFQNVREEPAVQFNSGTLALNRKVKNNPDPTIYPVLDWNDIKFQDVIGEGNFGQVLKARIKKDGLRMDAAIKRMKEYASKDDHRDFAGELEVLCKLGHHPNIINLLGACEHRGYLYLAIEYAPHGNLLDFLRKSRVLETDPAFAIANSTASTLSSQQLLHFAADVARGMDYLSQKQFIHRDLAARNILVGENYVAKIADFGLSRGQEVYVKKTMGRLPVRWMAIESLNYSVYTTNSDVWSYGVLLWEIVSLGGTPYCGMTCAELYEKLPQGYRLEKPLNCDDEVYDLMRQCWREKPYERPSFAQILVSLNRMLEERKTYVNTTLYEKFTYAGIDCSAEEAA

A word on the inhibition: it is the relative decrease from the control value, in per cent. As to `CN(C(=O)CN1CCOCC1)c1ccc2sc3c(-c4cccc5c(=O)cc(N6CC7CCC(C6)O7)oc45)cccc3c2c1` [NU5455], the inhibition at 1 µM was -0.1%.
